# Counter-ions that a name gives are not always drawn.
# Target: T1, human V1a receptor (Homo sapiens, UniProt P37288)
# T1 construct: expressed in transfected cells; host or cells: HEK293 cells, transiently transfected; cell membranes
# Assay: human V1a receptor binding studies (3H-Vasopressin, SPA beads)
# Conditions: membranes from HEK293 cells transiently transfected with human V1a receptor, Ki calculated from IC50 by the Cheng-Prussoff equation, read-out: pKi (hV1a) (converted)
# Experimental: The human V1a receptor was cloned by RT-PCR from total human liver RNA. The coding sequence was subcloned in an expression vector after sequencing to confirm the identity of the amplified sequence. […] Cell membranes were prepared from HEK293 cells transiently transfected with the expression vector and grown in 20 liter fermenters with the following protocol.
# 50 g of cells are resuspended in 30 ml freshly prepared ice cold Lyses buffer (50 mM HEPES, 1 mM EDTA, 10 mM magnesium dichloride adjusted to pH=7.4+complete cocktail of protease inhibitor (Roche Diagnostics)). Homogenized with Polytron for 1 min and solicited on ice for 2×2 minutes at 80% intensity (Vibrate solicitor). The preparation is centrifuged 20 min at 500 g at 4° C., the pellet is discarded and the supernatant centrifuged 1 hour at 43′000 g at 4° C. (19′000 rpm). The pellet is resuspended in 12.5 ml Lyses buffer+12.5 ml sucrose 20% and homogenized using a Polytron for 1-2 min. The protein concentration is determined by the Bradford method and aliquots are stored at −80° C. until use. For binding studies 60 mg Yttrium silicate SPA beads (Habersham®) are mixed with an aliquot of membrane in binding buffer (50 mM Tris, 120 mM sodium chloride, 5 mM potassium chloride, 2 mM calcium dichloride, 10 mM magnesium dichloride) for 15 minutes with mixing. 50 μl of bead/membrane mixture is then added to each well of a 96 well plate, followed by 50 μl of 4 nM 3H-Vasopressin (American Radiolabeled Chemicals). For total binding measurement 100 μl of binding buffer are added to the respective wells, for non-specific binding 100 μl of 8.4 mM cold vasopressin and for compound testing 100 μl of a serial dilution of each compound in 2% dimethyl sulfoxide. The plate is incubated 1 h at room temperature, centrifuged 1 min at 1000 g and counted on a Packard Top-Count. Non-specific binding counts are subtracted from each well and data is normalized to the maximum specific binding set at 100%. To calculate an IC50 the curve is fitted using a non-linear regression model (XLfit) and the Ki is calculated using the Cheng-Prussoff equation.
# T1 sequence (P37288 whole entry): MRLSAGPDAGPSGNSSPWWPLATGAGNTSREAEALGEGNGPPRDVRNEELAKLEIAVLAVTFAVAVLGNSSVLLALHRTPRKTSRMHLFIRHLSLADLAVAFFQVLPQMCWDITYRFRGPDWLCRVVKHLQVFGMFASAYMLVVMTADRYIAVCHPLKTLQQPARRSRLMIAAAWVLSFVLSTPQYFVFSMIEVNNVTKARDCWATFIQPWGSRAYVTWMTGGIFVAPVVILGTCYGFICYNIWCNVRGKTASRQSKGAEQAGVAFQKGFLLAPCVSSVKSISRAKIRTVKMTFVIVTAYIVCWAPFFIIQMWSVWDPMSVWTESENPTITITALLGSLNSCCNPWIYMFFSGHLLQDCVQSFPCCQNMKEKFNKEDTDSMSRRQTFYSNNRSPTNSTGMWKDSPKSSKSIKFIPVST
row,Compound,Ki [nM]
1,"CN1Cc2cc(Cl)ccc2-n2c(nnc2[C@H]2CC[C@H](c3cccnn3)CC2)C1 [Example 81, trans-8-Chloro-5-methyl-1-(4-pyridazin-3-yl-cyclohexyl)-5,6-dihydro-4H-2,3,5,10b-tetraaza-benzo[e]azulene]",4.68
2,"Fc1cccnc1[C@H]1CC[C@H](c2nnc3n2-c2ccc(Cl)cc2CNC3)CC1 [Example 29, trans-8-Chloro-1-[4-(3-fluoro-pyridin-2-yl)-cyclohexyl]-5,6-dihydro-4H-2,3,5,10b-tetraaza-benzo[e]azulene]",1.51
3,"Fc1ncccc1[C@H]1CC[C@H](c2nnc3n2-c2ccc(Cl)cc2CNC3)CC1 [Example 55, trans-8-Chloro-1-[4-(2-fluoro-pyridin-3-yl)-cyclohexyl]-5,6-dihydro-4H-2,3,5,10b-tetraaza-benzo[e]azulene]",69.2
4,"Fc1ccc2c(c1)CNCc1nnc([C@H]3CC[C@H](c4ncccc4F)CC3)n1-2 [Example 43, trans-8-Fluoro-[4-(3-fluoro-pyridin-2-yl)-cyclohexyl]-5,6-dihydro-4H-2,3,5,10b-tetraaza-benzo[e]azulene]",24.5
5,"Cc1nccnc1[C@H]1CC[C@H](c2nnc3n2-c2ccc(Cl)cc2CNC3)CC1 [Example 76, trans-8-Chloro-1-[4-(3-methyl-pyrazin-2-yl)-cyclohexyl]-5,6-dihydro-4H-2,3,5,10b-tetraaza-benzo[e]azulene]",44.7
6,"CN1Cc2cc(Cl)ccc2-n2c(nnc2[C@H]2CC[C@H](c3cnccn3)CC2)C1 [Example 71, trans-8-Chloro-5-methyl-1-(4-pyrazin-2-yl-cyclohexyl)-5,6-dihydro-4H-2,3,5,10b-tetraaza-benzo[e]azulene]",1.7
7,"CC(C)(C)OC(=O)N1Cc2cc(Cl)ccc2-n2c(nnc2[C@H]2CC[C@H](c3cccnc3Cl)CC2)C1 [Example 51, trans-8-Chloro-1-[4-(2-chloro-pyridin-3-yl)-cyclohexyl]-4H,6H-2,3,5,10b-tetraaza-benzo[e]azulene-5-carboxylic acid tert-butyl ester]",2.19
8,"COCCN1Cc2cc(Cl)ccc2-n2c(nnc2[C@H]2CC[C@H](c3ncccc3F)CC2)C1 [Example 35, trans-8-Chloro-1-[4-(3-fluoro-pyridin-2-yl)-cyclohexyl]-5-(2-methoxy-ethyl)-5,6-dihydro-4H-2,3,5,10b-tetraaza-benzo[e]azulene]",0.977
9,"CC(C)(C)OC(=O)N1Cc2cc(Cl)ccc2-n2c(nnc2[C@H]2CC[C@@H](c3ncccn3)CC2)C1 [Example 58, cis-8-Chloro-1-(4-pyrimidin-2-yl-cyclohexyl)-4H,6H-2,3,5,10b-tetraaza-benzo[e]azulene-5-carboxylic acid tert-butyl ester]",20.4
10,"Cc1nccnc1[C@H]1CC[C@H](c2nnc3n2-c2ccc(Cl)cc2CN(C)C3)CC1 [Example 77, trans-8-Chloro-5-methyl-1-[4-(3-methyl-pyrazin-2-yl)-cyclohexyl]-5,6-dihydro-4H-2,3,5,10b-tetraaza-benzo[e]azulene]",5.13
11,"Cc1nccnc1[C@H]1CC[C@H](c2nnc3n2-c2ccc(Cl)cc2CN(C(=O)OC(C)(C)C)C3)CC1 [Example 75, trans-8-Chloro-1-[4-(3-methyl-pyrazin-2-yl)-cyclohexyl]-4H,6H-2,3,5,10b-tetraaza-benzo[e]azulene-5-carboxylic acid tert-butyl ester]",1.2
12,"Cc1cncc([C@H]2CC[C@H](c3nnc4n3-c3ccc(Cl)cc3CNC4)CC2)n1 [Example 73, trans-8-Chloro-1-[4-(6-methyl-pyrazin-2-yl)-cyclohexyl]-5,6-dihydro-4H-2,3,5,10b-tetraaza-benzo[e]azulene]",55
13,"CC(C)(C)OC(=O)N1Cc2cc(Cl)ccc2-n2c(nnc2[C@H]2CC[C@H](c3ncccc3F)CC2)C1 [Example 28, trans-8-Chloro-1-[4-(3-fluoro-pyridin-2-yl)-cyclohexyl]-4H,6H-2,3,5,10b-tetraaza-benzo[e]azulene-5-carboxylic acid tert-butyl ester]",0.2
14,"CN1Cc2cc(F)ccc2-n2c(nnc2[C@H]2CC[C@H](c3ncccc3F)CC2)C1 [Example 44, trans-8-Fluoro-[4-(3-fluoro-pyridin-2-yl)-cyclohexyl]-5-methyl-5,6-dihydro-4H-2,3,5,10b-tetraaza-benzo[e]azulene]",8.91
15,"Clc1ccc2c(c1)CNCc1nnc([C@H]3CC[C@H](c4cccnc4Cl)CC3)n1-2 [Example 52, trans-8-Chloro-1-[4-(2-chloro-pyridin-3-yl)-cyclohexyl]-5,6-dihydro-4H-2,3,5,10b-tetraaza-benzo[e]azulene]",81.3
16,"Clc1ccc2c(c1)CNCc1nnc([C@H]3CC[C@H](c4cccnc4)CC3)n1-2 [Example 49, trans-8-Chloro-1-(4-pyridin-3-yl-cyclohexyl)-5,6-dihydro-4H-2,3,5,10b-tetraaza-benzo[e]azulene]",33.9
17,"CN(C)CC(=O)N1Cc2cc(Cl)ccc2-n2c(nnc2[C@H]2CC[C@H](c3ncccc3F)CC2)C1 [Example 39, trans-1-{8-Chloro-1-[4-(3-fluoro-pyridin-2-yl)-cyclohexyl]-4H,6H-2,3,5,10b-tetraaza-benzo[e]azulen-5-yl}-2-dimethylamino-ethanone formate]",2.51
18,"CN1Cc2cc(Cl)ccc2-n2c(nnc2[C@H]2CC[C@H](c3ncccn3)CC2)C1 [Example 60, trans-8-Chloro-5-methyl-1-(4-pyrimidin-2-yl-cyclohexyl)-5,6-dihydro-4H-2,3,5,10b-tetraaza-benzo[e]azulene]",2.19
19,"Clc1ccc2c(c1)CNCc1nnc([C@H]3CC[C@H](c4cnccn4)CC3)n1-2 [Example 70, trans-8-Chloro-1-(4-pyrazin-2-yl-cyclohexyl)-5,6-dihydro-4H-2,3,5,10b-tetraaza-benzo[e]azulene]",15.1
20,"CC(C)(C)OC(=O)N1Cc2cc(Cl)ccc2-n2c(nnc2[C@H]2CC[C@H](c3cc(Cl)ccn3)CC2)C1 [Example 25, trans-8-Chloro-1-[4-(4-chloro-pyridin-2-yl)-cyclohexyl]-4H,6H-2,3,5,10b-tetraaza-benzo[e]azulene-5-carboxylic acid tert-butyl ester]",0.427
21,"COc1cccc([C@H]2CC[C@H](c3nnc4n3-c3ccc(Cl)cc3CNC4)CC2)n1 [Example 14, trans-8-Chloro-1-[4-(6-methoxy-pyridin-2-yl)-cyclohexyl]-5,6-dihydro-4H-2,3,5,10b-tetraaza-benzo[e]azulene]",56.2
22,"Cc1cccc([C@H]2CC[C@H](c3nnc4n3-c3ccc(Cl)cc3CN(C)C4)CC2)n1 [Example 6, trans-8-Chloro-1-[4-(6-methyl-pyridin-2-yl)-cyclohexyl]-5-methyl-5,6-dihydro-4H-2,3,5,10b-tetraaza-benzo[e]azulene]",0.891
23,"CC(C)(C)OC(=O)N1Cc2cc(Cl)ccc2-n2c(nnc2[C@H]2CC[C@H](c3cccnc3F)CC2)C1 [Example 54, trans-8-Chloro-1-[4-(2-fluoro-pyridin-3-yl)-cyclohexyl]-4H,6H-2,3,5,10b-tetraaza-benzo[e]azulene-5-carboxylic acid tert-butyl ester]",1
24,"CC(C)(C)OC(=O)N1Cc2cc(Cl)ccc2-n2c(nnc2[C@H]2CC[C@@H](c3ncccc3F)CC2)C1 [Example 45, cis-8-Chloro-1-[4-(3-fluoro-pyridin-2-yl)-cyclohexyl]-4H,6H-2,3,5,10b-tetraaza-benzo[e]azulene-5-carboxylic acid tert-butyl ester]",5.01
25,"CC(C)(C)OC(=O)N1Cc2cc(Cl)ccc2-n2c(nnc2[C@H]2CC[C@H](c3ccccn3)CC2)C1 [Example 1, trans-8-Chloro-1-(4-pyridin-2-yl-cyclohexyl)-4H,6H-2,3,5,10b-tetraaza-benzo[e]azulene-5-carboxylic acid tert-butyl ester]",1.91
26,"CC(C)(C)OC(=O)N1Cc2cc(Cl)ccc2-n2c(nnc2[C@H]2CC[C@H](c3ccc(F)cn3)CC2)C1 [Example 22, trans-8-Chloro-1-[4-(5-fluoro-pyridin-2-yl)-cyclohexyl]-4H,6H-2,3,5,10b-tetraaza-benzo[e]azulene-5-carboxylic acid tert-butyl ester]",0.302
27,"Fc1cccc([C@H]2CC[C@H](c3nnc4n3-c3ccc(Cl)cc3CNC4)CC2)n1 [Example 20, trans-8-Chloro-1-[4-(6-fluoro-pyridin-2-yl)-cyclohexyl]-5,6-dihydro-4H-2,3,5,10b-tetraaza-benzo[e]azulene]",16.6
28,"CC(C)c1cccc([C@H]2CC[C@H](c3nnc4n3-c3ccc(Cl)cc3CN(C(=O)OC(C)(C)C)C4)CC2)n1 [Example 10, trans-8-Chloro-1-[4-(6-isopropyl-pyridin-2-yl)-cyclohexyl]-4H,6H-2,3,5,10b-tetraaza-benzo[e]azulene-5-carboxylic acid tert-butyl ester]",2.19

# From US8492376B2, “Heteroaryl-cyclohexyl-tetraazabenzo[e]azulenes” (Hoffmann-La Roche Inc., priority 2010, dated 2013)
